Test results: US20240269139A1, “COMPOUNDS FOR TARGETED PROTEIN DEGRADATION OF KINASES” (DANA-FARBER CANCER INSTITUTE, INC., priority 2020, published 2024)
Where “and” joins values, the source holds several entries; their conditions need not be identical. Equal values may be shown once. Read-outs that look alike come from different tables or passages of the source.

Assays:
Format in all cases: cell-based
[1] = test system: protein kinases (human kinome); conditions: for logFC LCK: accession P06239-3; for kinases the bifunctional compound degrades: as stated for the structure in the embodiments; for Kinase hits: kinases significantly downregulated vs DMSO (fold change cutoff −1.25, P-value<0.01), ≤8 h, 0.1-5 μM degrader, 7 cell lines; for Total no. kinase hits: number of degraded kinases per library compound; for logFC of SRC: Accession P12931-2; for logFC RPS6KA1: RPS6KA1 (Q15418-2)
[2] = biological target: protein kinases (human kinome) (Homo sapiens, UniProt Q2M2I8)
protein kinases (human kinome) (Homo sapiens, UniProt Q2M2I8), sequence (Q2M2I8 whole entry): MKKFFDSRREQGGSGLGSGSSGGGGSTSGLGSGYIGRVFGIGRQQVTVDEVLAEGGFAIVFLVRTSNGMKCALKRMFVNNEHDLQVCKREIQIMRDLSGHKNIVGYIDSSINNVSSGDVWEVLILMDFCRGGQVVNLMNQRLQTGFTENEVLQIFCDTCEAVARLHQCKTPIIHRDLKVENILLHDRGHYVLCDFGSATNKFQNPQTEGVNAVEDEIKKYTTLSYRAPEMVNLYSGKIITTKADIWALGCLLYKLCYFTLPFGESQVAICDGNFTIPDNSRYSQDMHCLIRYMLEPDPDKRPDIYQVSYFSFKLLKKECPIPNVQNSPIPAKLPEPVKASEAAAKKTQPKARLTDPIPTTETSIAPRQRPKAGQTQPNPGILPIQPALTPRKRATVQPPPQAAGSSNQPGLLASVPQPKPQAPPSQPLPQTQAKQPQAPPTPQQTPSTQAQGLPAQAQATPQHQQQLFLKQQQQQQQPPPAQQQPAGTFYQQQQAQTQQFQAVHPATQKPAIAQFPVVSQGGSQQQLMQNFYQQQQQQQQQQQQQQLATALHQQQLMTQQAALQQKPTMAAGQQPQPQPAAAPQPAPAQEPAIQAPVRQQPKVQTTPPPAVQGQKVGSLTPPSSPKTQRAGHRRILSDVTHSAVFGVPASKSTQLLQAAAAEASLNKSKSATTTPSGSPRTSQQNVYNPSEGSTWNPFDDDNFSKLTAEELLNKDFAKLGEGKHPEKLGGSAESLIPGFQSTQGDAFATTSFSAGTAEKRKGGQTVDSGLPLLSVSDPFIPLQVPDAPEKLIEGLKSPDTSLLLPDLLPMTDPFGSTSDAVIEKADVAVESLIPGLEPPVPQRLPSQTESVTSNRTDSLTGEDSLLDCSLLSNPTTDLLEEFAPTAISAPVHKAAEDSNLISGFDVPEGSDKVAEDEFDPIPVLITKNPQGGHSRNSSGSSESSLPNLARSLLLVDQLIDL

[3] = biological target: protein kinases (human kinome) (Homo sapiens, UniProt P16591); conditions: for logFC of FER (P16591-1): down; for logFC of FER: FER P16591-1
protein kinases (human kinome) (Homo sapiens, UniProt P16591), sequence (P16591 whole entry): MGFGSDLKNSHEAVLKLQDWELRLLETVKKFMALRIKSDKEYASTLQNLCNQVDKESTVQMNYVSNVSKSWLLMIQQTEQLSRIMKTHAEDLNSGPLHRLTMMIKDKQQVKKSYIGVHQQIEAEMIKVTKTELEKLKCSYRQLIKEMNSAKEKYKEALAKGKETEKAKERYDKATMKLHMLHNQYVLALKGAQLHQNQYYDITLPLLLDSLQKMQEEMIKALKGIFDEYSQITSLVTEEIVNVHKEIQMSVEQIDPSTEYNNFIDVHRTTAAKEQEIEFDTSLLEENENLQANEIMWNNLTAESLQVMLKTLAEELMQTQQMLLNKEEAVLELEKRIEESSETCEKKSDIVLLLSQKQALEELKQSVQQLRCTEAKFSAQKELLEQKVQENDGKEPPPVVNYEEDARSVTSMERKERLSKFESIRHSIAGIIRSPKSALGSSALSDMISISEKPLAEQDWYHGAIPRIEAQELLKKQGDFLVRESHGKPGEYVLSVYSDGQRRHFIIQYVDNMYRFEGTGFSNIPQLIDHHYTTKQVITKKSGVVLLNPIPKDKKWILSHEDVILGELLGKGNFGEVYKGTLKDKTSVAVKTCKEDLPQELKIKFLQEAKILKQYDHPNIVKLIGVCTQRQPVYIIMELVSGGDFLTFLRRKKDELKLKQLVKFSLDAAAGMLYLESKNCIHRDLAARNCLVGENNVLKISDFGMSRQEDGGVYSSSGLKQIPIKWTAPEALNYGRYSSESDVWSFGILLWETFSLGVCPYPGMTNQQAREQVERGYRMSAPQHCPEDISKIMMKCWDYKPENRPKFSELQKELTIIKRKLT

[4] = biological target: protein kinases (human kinome) (Homo sapiens, UniProt P53671); conditions: for logFC LIMK2: LIMK2 (P53671), down; for logFC of LIMK2: LIMK2 P53671
protein kinases (human kinome) (Homo sapiens, UniProt P53671), sequence (P53671 whole entry): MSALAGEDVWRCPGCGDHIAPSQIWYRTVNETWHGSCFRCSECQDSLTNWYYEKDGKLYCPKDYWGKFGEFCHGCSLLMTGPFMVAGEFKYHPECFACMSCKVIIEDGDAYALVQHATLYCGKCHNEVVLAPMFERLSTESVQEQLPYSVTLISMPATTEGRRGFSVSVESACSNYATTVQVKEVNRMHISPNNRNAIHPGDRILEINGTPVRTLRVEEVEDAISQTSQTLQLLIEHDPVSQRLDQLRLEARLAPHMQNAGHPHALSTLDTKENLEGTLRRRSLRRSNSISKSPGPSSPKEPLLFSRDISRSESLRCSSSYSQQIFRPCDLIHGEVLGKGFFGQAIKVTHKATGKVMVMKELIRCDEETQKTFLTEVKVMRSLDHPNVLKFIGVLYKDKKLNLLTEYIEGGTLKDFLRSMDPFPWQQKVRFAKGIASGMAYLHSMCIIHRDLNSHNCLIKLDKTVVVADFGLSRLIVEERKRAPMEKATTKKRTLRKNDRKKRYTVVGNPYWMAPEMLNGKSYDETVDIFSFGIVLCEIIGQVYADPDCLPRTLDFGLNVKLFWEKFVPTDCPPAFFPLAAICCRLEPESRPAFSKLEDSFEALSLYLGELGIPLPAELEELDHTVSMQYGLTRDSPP

[5] = biological target: protein kinases (human kinome) (Homo sapiens, UniProt P11802)
protein kinases (human kinome) (Homo sapiens, UniProt P11802), sequence (P11802 whole entry): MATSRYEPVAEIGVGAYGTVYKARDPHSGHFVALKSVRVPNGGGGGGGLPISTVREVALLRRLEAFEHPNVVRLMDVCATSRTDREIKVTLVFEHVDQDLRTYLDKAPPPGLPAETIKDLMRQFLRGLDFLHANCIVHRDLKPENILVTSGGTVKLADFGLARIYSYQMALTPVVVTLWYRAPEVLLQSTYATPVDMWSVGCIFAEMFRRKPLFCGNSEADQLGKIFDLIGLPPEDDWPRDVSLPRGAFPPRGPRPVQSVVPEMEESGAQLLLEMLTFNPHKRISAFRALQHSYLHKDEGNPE

[6] = experiment wp045, direction of change down
[7] = AAK1 (Q2M218-1), experiment wp117, down
[8] = AAK1, accession Q2M218-1, experiment wp117, direction of change down
[9] = AURKB Q96GD4-5, experiment wp108
[10] = AURKB Q96GD4-5, experiment wp131
[11] = CDK9 (P50750-2) protein abundance, degrader vs DMSO, down
[12] = experiment wp016, direction of change down
[13] = SRC (P12931-2) protein abundance, degrader vs DMSO, down
[14] = AURKB Q96GD4-5, experiment wp137
[15] = experiment wp137, direction of change down

## CS(=O)(=O)Nc1cccc(-c2csc3cnc(Nc4ccc(N5CCN(CCCCCOc6cccc7c6C(=O)N(C6CCC(=O)NC6=O)C7=O)CC5)cc4)nc23)c1 (stereo not shown) [DB0614, N-(3-(2-((4-(4-(5-((2-(2,6-Dioxopiperidin-3-yl)-1,3-dioxoisoindolin-4-yl)oxy)pentyl)piperazin-1-yl)phenyl)amino)thieno[3,2-d]pyrimidin-7-yl)phenyl)methanesulfonamide]
[1]; CAMKK1 (Q8N5S9-2), experiment wp045
  logFC: −0.6487
[1]; Experiment wp045
  logFC of CAMKK1 (Q8N5S9-2): −0.6487
[1]; Experiment wp045, direction down
  logFC MAPK8 (P45983-4): −0.6882
[1]; Experiment wp117
  logFC of MAPK8 (P45983-2): −0.6328
[1]; Experiment wp117, direction down
  logFC MAPK8 (P45983-2): −0.6328
[1]; [6]
  logFC LCK: −0.33
  logFC LCK (P06239-3): −0.33
[1]; MAPK8 P45983-4, experiment wp045
  logFC MAPK8: −0.6882
[1]; PTK2B (Q14289-2), experiment wp117, direction down
  logFC: −1.203
[1]; PTK2B, accession Q14289-2, experiment wp117, direction of change down
  logFC PTK2B: −1.203
[1]
  kinases the bifunctional compound degrades: AAK1, AURKA, BMP2K, CAMKK1, CDK16, CDK4, CDK6, EIF2AK2, FER, GAK, LCK, LIMK2, MAP3K11, MAPK8, MAPK9, NEK9, PLK4, PTK2B, SIK2, STK17A, STK17B, ULK1, ULK3, and WEE1
  Kinase hits: AAK1, AURKA, BMP2K, CAMKK1, CDK16, CDK4, CDK6, EIF2AK2, FER, GAK, LCK, LIMK2, MAP3K11, MAPK8, MAPK9, NEK9, PLK4, PTK2B, SIK2, STKI7A, STKI7B, ULK1, ULK3, WEE1
  Total no. kinase hits: 24
[1]; experiment wp117
  logFC CDK16 (Q00536-2): −0.5528
[2]; AAK1 (Q2M218-1), experiment wp045, down
  logFC AAK1: −1.863
[2]; [7]
  logFC AAK1: −1.652
[2]; AAK1, accession Q2M218-1, experiment wp045, direction of change down
  logFC AAK1: −1.863
[2]; [8]
  logFC AAK1: −1.662
[3]; Experiment wp045
  logFC of FER (P16591-1): −0.7641
[3]; Experiment wp117
  logFC of FER (P16591-1): −0.7725
[3]; experiment wp045
  logFC of FER: −0.7641
[3]; experiment wp117
  logFC of FER: −0.7725
[4]; experiment wp045
  logFC LIMK2: −0.437
  logFC of LIMK2: −0.437
[5]; experiment wp045
  logFC CDK4 (P11802): −1.539
[5]; experiment wp117
  logFC CDK4 (P11802): −1.539

## Cc1ncsc1-c1ccc([C@H](C)NC(=O)[C@@H]2C[C@@H](O)CN2C(=O)[C@@H](NC(=O)CCOCCOCCN2CCN(c3ccc(Nc4ncc(Cl)c(Nc5ccccc5S(=O)(=O)C(C)C)n4)cc3)CC2)C(C)(C)C)cc1 [FMF.06.098.1]
[1]; [9]
  logFC: −0.5246
  logFC AURKB: −0.5246
[1]; [10]
  logFC: −0.6726
  logFC AURKB: −0.6726
[1]; Accession O60566-3, experiment wp108, direction down
  logFC BUB1B: −0.4426
[1]; Accession O60566-3, experiment wp131, direction down
  logFC BUB1B: −0.4232
[1]; Accession P48730-2, experiment wp108, direction down
  logFC CSNK1D: −0.3812
[1]; Accession P48730-2, experiment wp114, direction down
  logFC CSNK1D: −0.4039
[1]; BUB1B (O60566-3), experiment wp108
  logFC BUB1B: −0.4426
[1]; BUB1B (O60566-3), experiment wp131
  logFC BUB1B: −0.4232
[1]; [11]
  logFC: −0.7233 and −0.6791
[1]; CSNK1D P48730-2, experiment wp108
  logFC CSNK1D: −0.3812
[1]; CSNK1D P48730-2, experiment wp114
  logFC CSNK1D: −0.4039
[1]; Experiment wp108
  logFC CDK9 (P50750-2): −0.7233
[1]; Experiment wp131, direction down
  logFC PRKAA1 (Q13131-2): −0.3695
[1]; FER (P16591-3), experiment wp114, direction down
  logFC: −0.3986
[1]; FER P16591-3, experiment wp114
  logFC of FER: −0.3986
[1]; experiment wp108, direction of change down
  logFC FGFR1 (P11362-21): −0.4121
[1]; experiment wp131
  logFC ABL2 (P42684-5): −0.6443
  logFC CDK9 (P50750-2): −0.6791
  logFC PRKAA1 (Q13131-2): −0.3695
  logFC of ABL2 (P42684-5): −0.6443
[1]; protein FGFR1 (P11362-21), experiment wp108, down
  logFC FGFR1: −0.4121
[2]; AAK1 (Q2M218-1), experiment wp108, down
  logFC AAK1: −0.4346
[2]; AAK1 (Q2M218-1), experiment wp114, down
  logFC AAK1: −0.485
[2]; AAK1 (Q2M218-1), experiment wp131, down
  logFC AAK1: −0.7293
[2]; AAK1, accession Q2M218-1, experiment wp108, direction of change down
  logFC AAK1: −0.4346
[2]; AAK1, accession Q2M218-1, experiment wp114, direction of change down
  logFC AAK1: −0.485
[2]; AAK1, accession Q2M218-1, experiment wp131, direction of change down
  logFC AAK1: −0.7293
[3]; Experiment wp108
  logFC of FER (P16591-1): −0.3577
[3]; Experiment wp131
  logFC of FER (P16591-1): −0.4871
[3]; experiment wp108
  logFC of FER: −0.3577
[3]; experiment wp131
  logFC of FER: −0.4871
[4]; experiment wp108
  logFC LIMK2: −0.8226
  logFC of LIMK2: −0.8226
[4]; experiment wp114
  logFC LIMK2: −1.629
  logFC of LIMK2: −1.629
[4]; experiment wp131
  logFC LIMK2: −1.077
  logFC of LIMK2: −1.077
[5]; Experiment wp108
  logFC CDK4 (P11802): −0.8731
[5]; experiment wp114
  logFC CDK4 (P11802): −0.3781
[5]; experiment wp131
  logFC CDK4 (P11802): −1.029

## Cc1ncsc1-c1ccc([C@H](C)NC(=O)[C@@H]2C[C@@H](O)CN2C(=O)[C@@H](NC(=O)CCCCCN2CCN(c3ccc(Nc4ncc5scc(-c6cccc(NS(C)(=O)=O)c6)c5n4)cc3)CC2)C(C)(C)C)cc1 [RSS0680, (2S,4R)-1-((S)-3,3-Dimethyl-2-(6-(4-(4-((7-(3-(methylsulfonamido)phenyl)thieno[3,2-d]pyrimidin-2-yl)amino)phenyl)piperazin-1-yl)hexanamido)butanoyl)-4-hydroxy-N—((S)-1-(4-(4-methylthiazol-5yl)phenyl)ethyl)pyrrolidine-2-carboxamide]
[1]
  kinases the bifunctional compound degrades: AAK1, CDK1, CDK16, CDK2, CDK4, CDK6, EIF2AK4, GAK. LATS1, LIMK2, MAPK6, MAPKAPK5, MARK2, MARK4, MKNK2, NEK9, RPS6KB1, SIK2, SNRK, STK17A, STK17B, STK35, and WEE1
  Kinase hits: AAK1, CDK1, CDK16, CDK2, CDKA, CDK6, EIF2AK4, GAK, LATS1, LIMK2, MAPK6, MAPKAPK5, MARK2, MARK4, MKNK2, NEK9, RPS6KB1, SIK2, SNRK, STK17A, STK17B. STK35, WEE1
  Total no. kinase hits: 26
[1]; experiment wp080
  logFC CDK16 (Q00536-2): −1.002
[1]; experiment wp117
  logFC CDK16 (Q00536-2): −0.9383
[1]; protein HK1 (P19367-3), experiment wp080, down
  logFC HK1: −0.3696
[2]; AAK1 (Q2M218-1), experiment wp080, down
  logFC AAK1: −1.392
[2]; [7]
  logFC AAK1: −1.05
[2]; AAK1, accession Q2M218-1, experiment wp080, direction of change down
  logFC AAK1: −1.392
[2]; [8]
  logFC AAK1: −1.05
[4]; experiment wp080
  logFC LIMK2: −0.8809
  logFC of LIMK2: −0.8809
[4]; experiment wp117
  logFC LIMK2: −1.109
  logFC of LIMK2: −1.109
[5]; experiment wp080
  logFC CDK4 (P11802): −1.724
[5]; experiment wp117
  logFC CDK4 (P11802): −1.679

## CC(C)S(=O)(=O)c1ccccc1Nc1nc(Nc2ccc(N3CCN(CCOCCNC(=O)CNc4ccc5c(c4)C(=O)N(C4CCC(=O)NC4=O)C5=O)CC3)cc2)ncc1Cl (stereo not shown) [SK.3.93]
[1]; experiment wp016
  logFC of SRC: −0.3456
  logFC RPS6KA1: −0.3413
  logFC CDK9 (P50750-2): −0.6376
  logFC PRKAA1 (Q13131-2): −0.4738
  logFC RPS6KA1 (Q15418-2): −0.3413
[1]; [11]
  logFC: −0.6376
[1]; Experiment wp016, direction down
  logFC PRKAA1 (Q13131-2): −0.4738
[1]; [12]
  logFC LCK: −0.7798
  logFC LCK (P06239-3): −0.7798
[1]; [13]
  logFC: −0.3456
[2]; AAK1 (Q2M218-1), experiment wp016, down
  logFC AAK1: −1.588
[2]; AAK1, accession Q2M218-1, experiment wp016, direction of change down
  logFC AAK1: −1.588
[3]; Experiment wp016
  logFC of FER (P16591-1): −2.64
[3]; experiment wp016
  logFC of FER: −2.64
[4]; experiment wp016
  logFC LIMK2: −1.01
  logFC of LIMK2: −1.01
[5]; experiment wp016
  logFC CDK4 (P11802): −1.305

## CC(C)S(=O)(=O)c1ccccc1Nc1nc(Nc2ccc(N3CCN(CCOCCOCCC(=O)NCCNc4cccc5c4CN(C4CCC(=O)NC4=O)C5=O)CC3)cc2)ncc1Cl (stereo not shown) [TL13.97]
[1]; [14]
  logFC: −0.7523
  logFC AURKB: −0.7523
[1]; Accession O60566-3, experiment wp137, direction down
  logFC BUB1B: −0.3313
[1]; experiment wp137
  logFC of SRC: −0.4824
  logFC RPS6KA1: −0.3757
  logFC CDK9 (P50750-2): −1.37
  logFC PRKAA1 (Q13131-2): −0.6678
  logFC RPS6KA1 (Q15418-2): −0.3757
  logFC of CDK17 (Q00537-2): −0.5683
[1]; Accession Q00537-2, experiment wp137
  logFC of CDK17: −0.5683
[1]; BUB1B (O60566-3), experiment wp137
  logFC BUB1B: −0.3313
[1]; [11]
  logFC: −1.37
[1]; Experiment wp137, direction down
  logFC PRKAA1 (Q13131-2): −0.6678
[1]; [15]
  logFC LCK: −0.8721
  logFC LCK (P06239-3): −0.8721
[1]; [13]
  logFC: −0.4824
[2]; AAK1 (Q2M218-1), experiment wp137, down
  logFC AAK1: −2.479
[2]; AAK1, accession Q2M218-1, experiment wp137, direction of change down
  logFC AAK1: −2.479
[3]; Experiment wp137
  logFC of FER (P16591-1): −2.412
[3]; experiment wp137
  logFC of FER: −2.412
[4]; experiment wp137
  logFC LIMK2: −0.9054
  logFC of LIMK2: −0.9054
[5]; experiment wp137
  logFC CDK4 (P11802): −0.9676
